Assay results taken from paper PMC12638379, “An innovative approach to development of new pyrazolylquinolin-2-one hybrids as dual EGFR and BRAF^V600E inhibitors” (Molecular Diversity, 2025).
Like-named read-outs stand apart in the source and are kept apart here.

How the values were obtained:
[1] = system: NCI 60 cancer cell lines; assay: NCI anticancer screening over a panel of 60 cancer cells, single concentration 10 µM; format: cell-based, human; conditions: Homo sapiens, read-out: % Growth Inhibition (GI %)
How it was run: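 Run under the NCI Compound Evaluation Branch protocol, each compound was tested once at 10 µM. The panel comprised 60 cancer cell lines of diverse tissue origin, including leukemia, lung, colon, CNS, renal, ovarian, breast and prostate.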

[2] = target: BRAF^V600E (Homo sapiens, UniProt P15056, V600E); assay: BRAF^V600E inhibitory assay (B-Raf (V600E) Kinase Assay); format: biochemical; conditions: read-out: BRAF^V600E inhibition IC50 ± SEM
Chain of BRAF^V600E (P15056 whole entry V600E): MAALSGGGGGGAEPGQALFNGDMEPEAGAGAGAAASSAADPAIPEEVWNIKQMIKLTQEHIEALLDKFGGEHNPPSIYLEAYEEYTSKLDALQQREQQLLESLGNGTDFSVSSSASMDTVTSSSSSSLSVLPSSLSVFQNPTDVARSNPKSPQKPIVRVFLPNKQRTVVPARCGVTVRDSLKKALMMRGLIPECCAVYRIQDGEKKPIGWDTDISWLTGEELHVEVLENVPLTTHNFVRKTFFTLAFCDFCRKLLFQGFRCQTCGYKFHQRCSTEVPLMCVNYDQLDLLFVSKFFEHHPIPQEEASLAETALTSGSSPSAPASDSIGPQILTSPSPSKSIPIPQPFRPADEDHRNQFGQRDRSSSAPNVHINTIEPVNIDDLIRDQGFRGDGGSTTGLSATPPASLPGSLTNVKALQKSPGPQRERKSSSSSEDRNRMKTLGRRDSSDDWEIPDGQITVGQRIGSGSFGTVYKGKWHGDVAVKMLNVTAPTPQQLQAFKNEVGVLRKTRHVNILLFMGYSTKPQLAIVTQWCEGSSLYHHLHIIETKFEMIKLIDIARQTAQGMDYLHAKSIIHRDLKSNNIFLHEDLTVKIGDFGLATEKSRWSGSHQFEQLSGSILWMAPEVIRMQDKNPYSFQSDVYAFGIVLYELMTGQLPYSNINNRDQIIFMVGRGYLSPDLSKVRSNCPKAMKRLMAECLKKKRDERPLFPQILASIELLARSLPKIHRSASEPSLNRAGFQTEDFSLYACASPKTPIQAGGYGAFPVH

[3] = MTT cytotoxicity on normal cell line WI-38; conditions: human, WI-38 normal cells, % viability
[4] = system: normal cell line WI-38; assay: MTT cytotoxicity on normal cell line WI-38
[5] = target: T1, EGFR (Homo sapiens, UniProt P00533); assay: EGFR inhibitory assay; format: biochemical; conditions: for %inh: EGFR, unit not given
T1 construct: EGFR cytoplasmic domain (EGFR-CD, amino acids 645–1186); His6 (N); made in house; host or cells: Sf-9 insect cells (baculovirus)
T1 sequence (P00533 669-1210): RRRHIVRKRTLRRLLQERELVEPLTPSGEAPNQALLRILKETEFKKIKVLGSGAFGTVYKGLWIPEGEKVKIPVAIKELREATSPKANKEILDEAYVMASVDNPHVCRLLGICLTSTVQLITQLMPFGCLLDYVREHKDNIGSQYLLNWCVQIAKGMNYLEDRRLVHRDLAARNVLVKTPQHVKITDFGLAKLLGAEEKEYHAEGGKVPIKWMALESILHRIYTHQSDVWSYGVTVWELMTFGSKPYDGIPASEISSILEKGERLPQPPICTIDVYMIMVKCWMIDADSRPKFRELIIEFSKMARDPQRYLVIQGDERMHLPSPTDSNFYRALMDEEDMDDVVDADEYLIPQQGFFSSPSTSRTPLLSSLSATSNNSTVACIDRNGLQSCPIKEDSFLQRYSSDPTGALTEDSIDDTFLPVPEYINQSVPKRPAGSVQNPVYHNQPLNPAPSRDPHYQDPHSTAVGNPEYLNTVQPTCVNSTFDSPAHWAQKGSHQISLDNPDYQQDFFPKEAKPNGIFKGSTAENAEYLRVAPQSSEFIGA

[6] = system: breast cancer (T47D) cell line; assay: MTT antiproliferative assay, T-47D
How it was run: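 HOP-92, MOLT-4 and T-47D cells in DMEM/10% FBS/insulin exposed 24 h to serial 10-fold dilutions […]; MTT added 2–4 h, absorbance at 570 nm with 690 nm background subtraction. Percent viable cells gives IC50; GI50 is the average IC50 across the three lines.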

[7] = system: leukemia (MOLT-4) cell line; assay: MTT antiproliferative assay, MOLT-4; format: cell-based, human
Experimental: After 24 h of culture incubation and supernatants discarded.

C/C(=N\Nc1ccc(C(=O)O)cc1)c1cnn(-c2cc(=O)[nH]c3ccc(C)cc23)c1C [Compound 4g, (E)-4-(2-(1-(5-methyl-1-(6-methyl-2-oxo-1,2-dihydroquinolin-4-yl)-1H-pyrazol-4-yl)ethylidene)hydrazineyl)benzoic acid]
inhibition at 10 µM ([1]; 786-0, Renal cancer 786-0, 10 μM): 6.84%
inhibition at 10 µM ([1]; A498, Renal cancer A498, 10 μM): < 5%
inhibition at 10 µM ([1]; A549, Non-small cell lung cancer A549/ATCC, 10 μM): < 5%
inhibition at 10 µM ([1]; ACHN, Renal cancer ACHN, 10 μM): < 5%
inhibition at 10 µM ([1]; BT-549, Breast cancer BT-549, 10 μM): 11.6%
inhibition at 10 µM ([1]; CAKI-1, Renal cancer CAKI-1, 10 μM): 10.3%
inhibition at 10 µM ([1]; CCRF-CEM, Leukemia CCRF-CEM, 10 μM): 6.98%
inhibition at 10 µM ([1]; DU-145, Prostate cancer DU-145, 10 μM): < 5%
inhibition at 10 µM ([1]; EKVX, Non-small cell lung cancer EKVX, 10 μM): 7.01%
inhibition at 10 µM ([1]; HCC 2998, Colon cancer HCC-2998, 10 μM): < 5%
inhibition at 10 µM ([1]; HL-60, Leukemia HL-60(TB), 10 μM): < 5%
inhibition at 10 µM ([1]; HOP-62, Non-small cell lung cancer HOP-62, 10 μM): 6.86%
inhibition at 10 µM ([1]; HOP-92, Non-small cell lung cancer HOP-92, 10 μM): 93.9%
inhibition at 10 µM ([1]; HT-29, Colon cancer HT29, 10 μM): < 5%
inhibition at 10 µM ([1]; Hs-578T, Breast cancer HS 578T, 10 μM): 7.48%
inhibition at 10 µM ([1]; IGROV-1, Ovarian cancer IGROV1, 10 μM): < 5%
inhibition at 10 µM ([1]; K562, Leukemia K-562, 10 μM): < 5%
inhibition at 10 µM ([1]; LOX IMVI, Melanoma LOX IMVI, 10 μM): 5.11%
inhibition at 10 µM ([1]; Leukemia SR, 10 μM): 11.4%
inhibition at 10 µM ([1]; MCF7, Breast cancer MCF7, 10 μM): 9.62%
inhibition at 10 µM ([1]; MDA-MB-231, Breast cancer MDA-MB-231/ATCC, 10 μM): 8.94%
inhibition at 10 µM ([1]; MDA-MB-435, Melanoma MDA-MB-435, 10 μM): < 5%
inhibition at 10 µM ([1]; MDA-MB-468, Breast cancer MDA-MB-468, 10 μM): 16.8%
inhibition at 10 µM ([1]; Melanoma MALM-3M, 10 μM): 16.7%
inhibition at 10 µM ([1]; NCI-H23, Non-small cell lung cancer NCI-H23, 10 μM): < 5%
inhibition at 10 µM ([1]; NCI-H226, Non-small cell lung cancer NCI-H226, 10 μM): 9.91%
inhibition at 10 µM ([1]; NCI-H322M, Non-small cell lung cancer NCI-H322M, 10 μM): < 5%
inhibition at 10 µM ([1]; NCI-H460, Non-small cell lung cancer NCI-H460, 10 μM): < 5%
inhibition at 10 µM ([1]; NCI-H522, Non-small cell lung cancer NCI-H522, 10 μM): 10.6%
inhibition at 10 µM ([1]; NCI/ADR-RES, Ovarian cancer NCI/ADR-RES, 10 μM): < 5%
inhibition at 10 µM ([1]; OVCAR-4, Ovarian cancer OVCAR-4, 10 μM): 5.43%
inhibition at 10 µM ([1]; OVCAR-8, Ovarian cancer OVCAR-8, 10 μM): < 5%
inhibition at 10 µM ([1]; Prostate cancer PC-3, 10 μM): 11.2%
inhibition at 10 µM ([1]; RPMI-8226, Leukemia RPMI-8226, 10 μM): 14.9%
inhibition at 10 µM ([1]; RXF 393, Renal cancer RXF 393, 10 μM): 6.27%
inhibition at 10 µM ([1]; SF-539, CNS Cancer SF-539, 10 μM): < 5%
inhibition at 10 µM ([1]; SK-MEL-2, Melanoma SK-MEL-2, 10 μM): < 5%
inhibition at 10 µM ([1]; SK-MEL-28, Melanoma SK-MEL-28, 10 μM): < 5%
inhibition at 10 µM ([1]; SK-OV-3, Ovarian cancer SK-OV-3, 10 μM): 5.67%
inhibition at 10 µM ([1]; SN12C, Renal cancer SN12C, 10 μM): 7.44%
inhibition at 10 µM ([1]; SNB-75, CNS Cancer SNB-75, 10 μM): 8.08%
inhibition at 10 µM ([1]; TK-10, Renal cancer TK-10, 10 μM): < 5%
inhibition at 10 µM ([1]; U-251, CNS Cancer U251, 10 μM): < 5%
inhibition at 10 µM ([1]; UACC-62, Melanoma UACC-62, 10 μM): 8.46%
inhibition at 10 µM ([1]; UACC-257, Melanoma UACC-257, 10 μM): < 5%
inhibition at 10 µM ([1]; UO-31, Renal cancer UO-31, 10 μM): 32.1%
IC50 [2]: 0.194 ± 0.008 µM
viability at 24 h, 0.4 µM ([3]; WI38, 0.4uM (log conc. -0.41)): 80.4%
viability at 24 h, 1.6 µM ([3]; WI38, 1.6uM (log conc. 0.19)): 70.2%
viability at 24 h, 6.3 µM ([3]; WI38, 6.3uM (log conc. 0.8)): 62.8%
viability at 24 h, 25 µM ([3]; WI38, 25uM (log conc. 1.4)): 51.6%
viability at 24 h, 100 µM ([3]; WI38, 100uM (log conc. 2)): 44.1%
IC50 ([4]; Homo sapiens, read-out: Antiproliferative activity IC50 ± SEM): 37.6 ± 1.5 µM
% viability ([4]; WI38, 0.4uM (log conc. -0.41), listed as Ws7, 0.4 µM): 80.43%
% viability ([4]; WI38, 1.6uM (log conc. 0.19), listed as Ws7, 1.6 µM): 70.19%
% viability ([4]; WI38, 6.3uM (log conc. 0.8), listed as Ws7, 6.3 µM): 62.8%
% viability ([4]; WI38, 25uM (log conc. 1.4), listed as Ws7, 25 µM): 51.55%
% viability ([4]; WI38, 100uM (log conc. 2), listed as Ws7, 100 µM): 44.1%
%inh ([5]; conc 0.01 (log -2)): 21%
%inh ([5]; conc 0.1 (log -1)): 44.2%
%inh ([5]; conc 1 (log 0)): 71.4%
%inh ([5]; conc 10 (log 1)): 86.3%
%inh ([5]; conc 100 (log 2)): 94.5%
IC50 ([5]; read-out: EGFR inhibition IC50 ± SEM): 0.194 ± 0.007 µM
viability at 0.4 µM ([6]; Homo sapiens, T47D, T-47D, 0.4uM (log conc. -0.41)): 68.5%
viability at 1.6 µM ([6]; Homo sapiens, T47D, T-47D, 1.6uM (log conc. 0.19)): 61.7%
viability at 6.3 µM ([6]; Homo sapiens, T47D, T-47D, 6.3uM (log conc. 0.8)): 55%
viability at 25 µM ([6]; Homo sapiens, T47D, T-47D, 25uM (log conc. 1.4)): 44.6%
viability at 100 µM ([6]; Homo sapiens, T47D, T-47D, 100uM (log conc. 2)): 34%
IC50 ([6]; Homo sapiens, T47D, read-out: Antiproliferative activity IC50 ± SEM, T-47D, MTT): 9.71 ± 0.34 µM
% viability ([6]; T-47D, 0.4uM (log conc. -0.41), listed as Ws7, 0.4 µM): 68.49%
% viability ([6]; T-47D, 1.6uM (log conc. 0.19), listed as Ws7, 1.6 µM): 61.66%
% viability ([6]; T-47D, 6.3uM (log conc. 0.8), listed as Ws7, 6.3 µM): 55.01%
% viability ([6]; T-47D, 25uM (log conc. 1.4), listed as Ws7, 25 µM): 44.58%
% viability ([6]; T-47D, 100uM (log conc. 2), listed as Ws7, 100 µM): 33.98%
viability at 0.4 µM ([7]; Homo sapiens, MOLT-4, MOLT-4, MTT, 0.4uM): 68.9%
viability at 1.6 µM ([7]; Homo sapiens, MOLT-4, MOLT-4, MTT, 1.6uM): 54.8%
viability at 6.3 µM ([7]; Homo sapiens, MOLT-4, MOLT-4, MTT, 6.3uM): 48.2%
viability at 25 µM ([7]; Homo sapiens, MOLT-4, MOLT-4, MTT, 25uM): 42.4%
viability at 100 µM ([7]; Homo sapiens, MOLT-4, MOLT-4, MTT, 100uM): 35.3%
IC50 ([7]; Homo sapiens, MOLT-4, MTT, read-out: Antiproliferative activity IC50 ± SEM, MOLT-4): 6.17 ± 0.25 µM
% viability ([7]; MOLT-4, MTT, 1.6uM, listed as Ws7, 1.6 µM): 54.85%
% viability ([7]; MOLT-4, MTT, 6.3uM, listed as Ws7, 6.3 µM): 48.2%
% viability ([7]; MOLT-4, MTT, 25uM, listed as Ws7, 25 µM): 42.37%
% viability ([7]; MOLT-4, MTT, 100uM, listed as Ws7, 100 µM): 35.35%
